The source of these data is publication PMC7997640, “Potential anti-COVID-19 agents, cepharanthine and nelfinavir, and their usage for combination treatment” (iScience, 2021).

Where two headings read alike, the source gives them in different places.

The subject of data set [1] is SARS-CoV-2. The experiment in a line: Chemical screening of 306 approved drugs by cytopathic effect assay. In kind it is cell-based.
The nature of a further data set: in vitro. Conditions: African green monkey.
Data set [2] relates to SARS-CoV-2. It is filed as cell-based.
Data set [3] has as its system SARS-CoV-2. The experiment in a line: microbe, parasite or virus in culture. Conditions: for IC90: read-out: SARS-CoV-2 RNA IC90.
For data set [4], the system named is SARS-CoV-2.
The subject of data set [5] is SARS-CoV-2. It is filed as cell-based. This is another data set of the same source.
The subject of data set [6] is SARS-CoV-2. In kind it is cell-based. Conditions: VeroE6/TMPRSS2, 48 hr.
For data set [7] the following is noted: expected in human lung.
For data set [8] the following is noted: patients, 500 mg NFV orally; ref Markowitz et al., 1998; read-out: serum Cmax; cited from earlier work.
The next data set can be described thus: clinical. The settings on record: human, po, 500 mg.
The next data set has as its target SARS-CoV-2 main protease (Severe acute respiratory syndrome coronavirus 2, UniProt P0DTD1). The experiment in a line: biochemical.
A further data set has as its system SARS-CoV. The settings on record: ref Liu et al., 2005, Wu et al., 2004, Yamamoto et al.; cited from earlier work.
For data set [9], the system named is SARS-CoV-2. The experiment in a line: Viral N protein immunofluorescence in Calu-3 cells. It is filed as cell-based.
Data set [10] relates to SARS-CoV-2. Nature of the data set: microbe, parasite or virus in culture. It is filed as cell-based.
In data set [11] the test system is SARS-CoV-2. Nature of the data set: Virus-cell binding assay at 4°C. In kind it is cell-based.
[12] abbreviates: Severe acute respiratory syndrome coronavirus 2, VeroE6/TMPRSS2, 24 h, read-out: SARS-CoV-2 RNA IC50.
[13] abbreviates: Severe acute respiratory syndrome coronavirus 2, VeroE6/TMPRSS2, 24 h.
[14] abbreviates: Severe acute respiratory syndrome coronavirus 2, read-out: IC50 (Hill function fit).
The mark [15] stands for this setting: VeroE6/TMPRSS2, 24 hr, LPV 16 μM, CLQ 16 μM, RDV 20 μM, CEP 8 μM, NFV 4 μM.
Where [16] appears, read: Table S1, Single-drug treatment.
[17] abbreviates: secreted viral RNA 24 hr, RDV 15 μM, CLQ 15 μM, CEP 8.2 μM, NFV 4 μM.

`CO[C@H]1C[C@@H]2CC[C@@H](C)[C@@](O)(O2)C(=O)C(=O)N2CCCC[C@H]2C(=O)O[C@H]([C@H](C)C[C@@H]2CC[C@@H](O)[C@H](OC)C2)CC(=O)[C@H](C)/C=C(\C)[C@@H](O)[C@@H](OC)C(=O)[C@H](C)C[C@H](C)/C=C/C=C/C=C/1C` [Rapamycin]: the “screening outcome (hit = cell survival more than 20-fold of the control)” value with SARS-CoV-2 [1] is “identified as hits”.

For orientation: IC50 means the concentration at which inhibition is half-maximal. The IC90 is the concentration at which the effect reaches the 90% level. For `CCC(CC)COC(=O)[C@H](C)N[P@](=O)(OC[C@H]1O[C@@](C#N)(c2ccc3c(N)ncnn23)[C@H](O)[C@@H]1O)Oc1ccccc1` [RDV, Remdesivir], the CC50 in the data set “in vitro” was > 64 µM. Also, the N protein expression entry in the data set with SARS-CoV-2 [2] was “significantly reduced N protein expression”. Moreover, the IC50 in the data set on SARS-CoV-2 [3] (setting [12]) was found to be 1.58 µM. For the same compound, in the data set with SARS-CoV-2 [3] (setting [13]), the IC90 was 3.24 µM. Moreover, the IC50 in the data set with SARS-CoV-2 [3] (setting [14]) came to 1.58 µM. Moreover, in the data set with SARS-CoV-2 [4], the “antiviral activity on viral RNA” value is “inhibited viral RNA” and the “m, slope of the dose-response curve (Hill coefficient)” value (“m, slope of the dose-response curve” for short) came out at 3.048. Besides, the “step of life cycle inhibited (time-of-addition)” value (from here on “step of life cycle inhibited”) with SARS-CoV-2 [5] was “negligible effect on virus entry”.

With `NC(=O)c1nc(F)c[nH]c1=O` [FPV, favipiravir], in the data set “in vitro”, the CC50 was > 64 µM. Moreover, the IC50 in the data set on SARS-CoV-2 [3] (setting [12]) was > 64 µM. Moreover, the IC90 in the data set with SARS-CoV-2 [3] (setting [13]) was > 64 µM. Besides, the “antiviral activity on viral RNA” value with SARS-CoV-2 [4] was “negligible antiviral activity”.

Take `CCOC(=O)O[C@]1(C(=O)OCCl)CC[C@H]2[C@@H]3CCC4=CC(=O)C=C[C@]4(C)[C@H]3[C@@H](O)C[C@@]21C` [Loteprednol]: in the data set with SARS-CoV-2 [1], the “screening outcome (hit = cell survival more than 20-fold of the control)” value is given as “identified as hits”.

In turn, `Cc1cccc(C)c1OCC(=O)N[C@@H](Cc1ccccc1)[C@@H](O)C[C@H](Cc1ccccc1)NC(=O)[C@H](C(C)C)N1CCCNC1=O` [LPV, lopinavir] registered a CC50 in “in vitro” of 54.9 µM. For the same compound, in the data set with SARS-CoV-2 [2] (setting [15]), the N protein expression entry is “significantly reduced N protein expression”. For the same compound, in the data set with SARS-CoV-2 [6], the virus-induced cytopathicity entry was “reduced virus-induced cytopathicity”. In the data set with SARS-CoV-2 [1], the “screening outcome (hit = cell survival more than 20-fold of the control)” value is on record as “identified as hits”. For the same compound, the values for the IC50 with SARS-CoV-2 [3] (setting [12]) and in the data set on SARS-CoV-2 [3] (setting [14]) were 3.07 µM and 3.61 µM, respectively. In the data set with SARS-CoV-2 [3] (setting [13]), the IC90 worked out at 5.43 µM. The “antiviral activity on viral RNA” value in the data set on SARS-CoV-2 [4] is recorded as “inhibited viral RNA”. Besides, the “m, slope of the dose-response curve” value in the data set on SARS-CoV-2 [4] (setting [16]) amounted to 3.852.

What is called Cmax is the highest concentration seen after dosing. With `Cc1c(O)cccc1C(=O)N[C@@H](CSc1ccccc1)[C@H](O)CN1C[C@H]2CCCC[C@H]2C[C@H]1C(=O)NC(C)(C)C` [NFV, nelfinavir], the CC50 in “in vitro” is > 64 µM. Further, in data set [7], the Degradation rate k worked out at 4.89 day⁻¹. In addition, in the data set on SARS-CoV-2 [2] (setting [15]), the N protein expression result was “significantly reduced N protein expression”. Also, the Cmax in [8] was 6.9 µM; in the data set “clinical”, 9.32 µM. Besides, in the data set with SARS-CoV-2 [6], the virus-induced cytopathicity entry is given as “greatest anti-cytopathic activity”. The IC50 at SARS-CoV-2 main protease stood at 37 µM; with SARS-CoV-2 [3] (setting [12]), 0.77 µM; in the data set with SARS-CoV-2 [3] (setting [14]), 0.765 µM; in the data set with SARS-CoV-2 [10] (setting [14]), 1.32 µM. In the data set on SARS-CoV-2 [1], the “screening outcome (hit = cell survival more than 20-fold of the control)” value is on record as “identified as hits”. Moreover, the “replication of SARS-CoV” value with SARS-CoV is “inhibit the replication”. For the same compound, the IC90 in the data set on SARS-CoV-2 [3] (setting [13]) stood at 1.18 µM. For the same compound, in the data set on SARS-CoV-2 [9], the “SARS-CoV-2 proliferation in Calu-3 cells (N protein)” value is reported as “inhibit SARS-CoV-2 proliferation”. In addition, the “viral RNA levels, % of the untreated control infections” value in the data set with SARS-CoV-2 [4] was 0.001–0.01%. Also, in the data set on SARS-CoV-2 [4], the “window (CC50/IC50)” value is given as > 70 fold. The “m, slope of the dose-response curve” value is recorded as 5.079 with SARS-CoV-2 [4] (setting [16]) and 4.043 in the data set with SARS-CoV-2 [10] (Table S1, Combination treatment experiment). In the data set on SARS-CoV-2 [10] ([…], CEP 3.20 μM, NFV 2.24 μM, alone or combined), the “viral RNA, % of untreated control” value is reported as 5.8%. Also, the “step of life cycle inhibited” value in the data set with SARS-CoV-2 [5] (setting [17]) was “clearly inhibited the post-entry process”.

For `CCN(CC)CCCC(C)Nc1ccnc2cc(Cl)ccc12` (stereo not drawn) [CLQ, chloroquine], the CC50 in “in vitro” is > 64 µM. Moreover, in the data set with SARS-CoV-2 [2] (setting [15]), the N protein expression result is “significantly reduced N protein expression”. For the same compound, the “SARS-CoV-2 binding to cells (cell-bound viral RNA)” value in the data set with SARS-CoV-2 [11] is reported as “negligible effect”. The virus-induced cytopathicity entry in the data set on SARS-CoV-2 [6] is “reduced virus-induced cytopathicity”. Moreover, the IC50 in the data set with SARS-CoV-2 [3] (setting [12]) and in the data set with SARS-CoV-2 [3] (setting [14]) was 1.31 µM each time. Moreover, the IC90 in the data set on SARS-CoV-2 [3] (setting [13]) is 3.97 µM. The “antiviral activity on viral RNA” value in the data set on SARS-CoV-2 [4] is reported as “inhibited viral RNA”. In addition, the “m, slope of the dose-response curve” value with SARS-CoV-2 [4] (setting [16]) is on record as 1.984. The “step of life cycle inhibited” value in the data set with SARS-CoV-2 [5] (setting [17]) is given as “activity in the early stages of infection”.

In the case of heparin, the “SARS-CoV-2 binding to cells (cell-bound viral RNA)” value with SARS-CoV-2 [11] is given as “significantly blocked SARS-CoV-2 particle attachment”.
